According to ChEMBL document CHEMBL5137052, “Identification of dihydroquinolizinone derivatives with cyclic ether moieties as new anti-HBV agents” (Eur J Med Chem, 2022):

Experiments:
Hepatitis B virus [1] = experiment: Antiviral activity against HBV infected in human HepG2.2.15 cells assessed as reduction in HBeAg level in cellular supernatant by luminescence based microplate reader analysis; format: functional, organism-based
Hepatitis B virus [2] = experiment: Antiviral activity against HBV infected in human HepG2.2.15 cells assessed as reduction in HBsAg level in cellular supernatant by luminescence based microplate reader analysis; format: functional, organism-based
Hepatitis B virus [3] = experiment: Antiviral activity against HBV infected in human HepG2.2.15 cells assessed as reduction in intracellular core HBV DNA level incubated for 6 days by qPCR analysis; format: functional, organism-based; settings: HepG2.2.15, 144 h
[4] = Neurotoxicity against NGF induced rat PC-12 cells assessed as morphological changes by measuring appearance of shrunken cells with disappearance of neurites at 10 uM incubated for 48 hrs by phase contrast microscopic analysis; format: toxicity, cell-based; settings: pc-12, 48 h
[5] = Neurotoxicity against NGF induced rat PC-12 cells assessed as morphological changes by measuring appearance of round cells with disappearance of neurites at 10 uM incubated for 48 hrs by phase contrast microscopic analysis; format: toxicity, cell-based; settings: pc-12, 48 h
[6] = Cytotoxicity against human HepG2.2.15 cells assessed as reduction in cell viability incubated for 6 days by CCK-8 assay; format: toxicity, cell-based, HepG2 2.2.15; settings: for CC50 at 144 h: time 6 day
[7] = Neurotoxicity against NGF induced rat PC-12 cells assessed as morphological changes by measuring appearance of shrunken cells at 10 uM incubated for 48 hrs by phase contrast microscopic analysis; format: toxicity, cell-based; settings: pc-12, 48 h
[8] = Cmax in BALB/c mouse at 10 mg/kg, po measured up to 24 hrs by HPLC analysis; format: ADME, organism-based; parameters: dose 10 mg/kg, time < 24 hrs, route po; settings: in vivo
[9] = MRT (0 to t) in BALB/c mouse at 10 mg/kg, po measured up to 24 hrs by HPLC analysis; format: ADME, organism-based; settings: in vivo
[10] = AUC (0 to t) in BALB/c mouse at 10 mg/kg, po measured up to 24 hrs by HPLC analysis; format: ADME, organism-based; parameters: dose 10 mg/kg, time < 24 hrs, route po; settings: in vivo
[11] = Tmax in BALB/c mouse at 10 mg/kg, po measured up to 24 hrs by HPLC analysis; format: ADME, organism-based; settings: in vivo
[12] = Elimination half life in BALB/c mouse at 10 mg/kg, po measured up to 24 hrs by HPLC analysis; format: ADME, organism-based; settings: in vivo, read-out: beta t1/2 (converted)
[13] = Neurotoxicity against NGF induced rat PC-12 cells assessed as morphological changes by measuring appearance of clear neurites at 10 uM incubated for 48 hrs by phase contrast microscopic analysis; format: toxicity, cell-based; settings: pc-12, 48 h

Compound | EC50 (Hepatitis B virus [1]) | EC50 (Hepatitis B virus [2]) | EC50 (Hepatitis B virus [3]) | CC50 at 144 h [6] | IC50 (Hepatitis B virus [1]) | IC50 (Hepatitis B virus [2]) | IC50 (Hepatitis B virus [3]) | further results
COCCCOc1cc2c(cc1OC)-c1cc(=O)c(C(=O)O)cn1[C@@H](C(C)C)C2 | 3.27 µM | 0.928 µM | 0.0758 µM | – | – | – | – | –
COc1cc2c(cc1OCc1ccc3c(c1)OCO3)C[C@@H](C(C)C)n1cc(C(=O)O)c(=O)cc1-2 | 0.191 µM | 0.0008 µM | 0.0019 µM | – | – | – | – | Activity [4]: Toxic; Activity [5]: Toxic
COc1cc2c(cc1OCc1ccc3c(c1)OCO3)C[C@H](C(C)C)n1cc(C(=O)O)c(=O)cc1-2 | 2.03 µM | 0.239 µM | 0.124 µM | – | – | – | – | –
COc1cc2c(cc1OCC1COc3cccc(Cl)c3O1)CC(C(C)C)n1cc(C(=O)O)c(=O)cc1-2 (stereo not drawn) | – | – | – | 11.6 µM | 0.0532 µM | 0.0034 µM | 0.0043 µM | –
COc1cc2c(cc1OC[C@H]1COc3cccnc3O1)C[C@@H](C(C)C)n1cc(C(=O)O)c(=O)cc1-2 | 0.104 µM | 0.0014 µM | 0.0014 µM | – | – | – | – | Activity [7]: Toxic
COc1cc2c(cc1OCC1COc3cc(Cl)ccc3O1)CC(C(C)C)n1cc(C(=O)O)c(=O)cc1-2 (stereo not drawn) | – | – | – | 10.6 µM | 0.0395 µM | 0.0037 µM | 0.0091 µM | –
COc1cc2c(cc1OCC1COc3ccc(Cl)cc3O1)CC(C(C)C)n1cc(C(=O)O)c(=O)cc1-2 (stereo not drawn) | – | – | – | 11.6 µM | 0.0865 µM | 0.0077 µM | 0.0057 µM | –
COc1cc2c(cc1OCC1COc3ccc(F)cc3O1)CC(C(C)C)n1cc(C(=O)O)c(=O)cc1-2 (stereo not drawn) | – | – | – | 34.7 µM | 0.0154 µM | 0.0002 µM | 0.0057 µM | Cmax [8]: 1.44 µM; MRT last at 24 h [9]: 112 min; AUC(0-t) at 24 h [10]: 3.38 µM·h; Tmax [11]: 60 min; half-life [12]: 101 min
COc1cc2c(cc1OCCC1COc3ccccc3O1)CC(C(C)C)n1cc(C(=O)O)c(=O)cc1-2 (stereo not drawn) | – | – | – | 11.6 µM | 0.0164 µM | 0.0184 µM | 0.0012 µM | –
COc1cc2c(cc1OCC1COc3cccc(F)c3O1)CC(C(C)C)n1cc(C(=O)O)c(=O)cc1-2 (stereo not drawn) | – | – | – | 21.5 µM | 0.0573 µM | 0.0016 µM | 0.0372 µM | –
COc1cc2c(cc1OCC1COc3cc(C)ccc3O1)CC(C(C)C)n1cc(C(=O)O)c(=O)cc1-2 (stereo not drawn) | – | – | – | 11.6 µM | 0.179 µM | 0.0035 µM | 0.0101 µM | –
COc1cc2c(cc1OCC1COc3cccnc3O1)CC(C(C)C)n1cc(C(=O)O)c(=O)cc1-2 (stereo not drawn) | – | – | – | > 50 µM | 0.0949 µM | 0.0019 µM | 0.0005 µM | Cmax [8]: 2.91 µM; MRT last at 24 h [9]: 52.8 min; AUC(0-t) at 24 h [10]: 2.38 µM·h; Tmax [11]: 30 min; half-life [12]: 43.2 min
COc1cc2c(cc1OCC1COCCO1)CC(C(C)C)n1cc(C(=O)O)c(=O)cc1-2 (stereo not drawn) | – | – | – | > 50 µM | > 1 µM | 0.0051 µM | 0.0182 µM | –
COc1ccc(COc2cc3c(cc2OC)-c2cc(=O)c(C(=O)O)cn2C(C(C)C)C3)cc1OC (stereo not drawn) | – | – | – | > 50 µM | 0.158 µM | 0.0011 µM | 0.0112 µM | –
COc1ccc2c(c1)OC(COc1cc3c(cc1OC)-c1cc(=O)c(C(=O)O)cn1C(C(C)C)C3)CO2 (stereo not drawn) | – | – | – | 31.9 µM | > 1 µM | 0.0017 µM | 0.0081 µM | –
COc1cc2c(cc1OCC1COc3c(Cl)cccc3O1)CC(C(C)C)n1cc(C(=O)O)c(=O)cc1-2 (stereo not drawn) | – | – | – | 11.6 µM | 0.021 µM | 0.0012 µM | 0.0042 µM | –
COc1cc2c(cc1OCC1COc3ccc(C)cc3O1)CC(C(C)C)n1cc(C(=O)O)c(=O)cc1-2 (stereo not drawn) | – | – | – | 34.7 µM | 0.328 µM | 0.0075 µM | 0.0179 µM | –
COc1cc2c(cc1OC[C@@H]1COc3cccnc3O1)C[C@@H](C(C)C)n1cc(C(=O)O)c(=O)cc1-2 | 0.07 µM | 0.0063 µM | 0.0863 µM | – | – | – | – | Activity [7]: Toxic
COc1cc2c(cc1OC[C@@H]1CCCO1)C[C@@H](C(C)C)n1cc(C(=O)O)c(=O)cc1-2 | 0.0046 µM | 0.0016 µM | 0.0006 µM | – | – | – | – | Activity [13]: Non-Toxic

Compound | EC50 (Hepatitis B virus [1]) | EC50 (Hepatitis B virus [2]) | EC50 (Hepatitis B virus [3]) | CC50 at 144 h [6] | IC50 (Hepatitis B virus [1]) | IC50 (Hepatitis B virus [2]) | IC50 (Hepatitis B virus [3]) | further results
COc1cc2c(cc1OCC1CCCO1)CC(C(C)C)n1cc(C(=O)O)c(=O)cc1-2 (stereo not drawn) | – | – | – | > 50 µM | 0.027 µM | 0.509 µM | 0.0016 µM | Cmax [8]: 8.84 µM; MRT last at 24 h [9]: 65.4 min; AUC(0-t) at 24 h [10]: 10.4 µM·h; Tmax [11]: 19.8 min; half-life [12]: 39.6 min
COc1cc2c(cc1OCC1COc3cc(Br)ccc3O1)CC(C(C)C)n1cc(C(=O)O)c(=O)cc1-2 (stereo not drawn) | – | – | – | 34.7 µM | > 1 µM | 0.0343 µM | 0.0369 µM | –
COc1cc2c(cc1OC[C@@H]1COc3cccnc3O1)C[C@H](C(C)C)n1cc(C(=O)O)c(=O)cc1-2 | 3.19 µM | 0.882 µM | 0.882 µM | – | – | – | – | –
COc1cc2c(cc1OC(C)c1ccc3c(c1)OCO3)CC(C(C)C)n1cc(C(=O)O)c(=O)cc1-2 (stereo not drawn) | – | – | – | > 50 µM | > 1 µM | 0.0012 µM | 0.181 µM | –
COc1cc2c(cc1OC[C@@H]1CCCO1)C[C@H](C(C)C)n1cc(C(=O)O)c(=O)cc1-2 | 2.01 µM | 0.0012 µM | 0.119 µM | – | – | – | – | –
COc1cc2c(cc1OC[C@H]1CCCO1)C[C@@H](C(C)C)n1cc(C(=O)O)c(=O)cc1-2 | 0.22 µM | 0.0051 µM | 0.0021 µM | – | – | – | – | Activity [7]: Toxic
COc1cc2c(cc1OCC1COc3ccccc3O1)CC(C(C)C)n1cc(C(=O)O)c(=O)cc1-2 (stereo not drawn) | – | – | – | – | 0.002 µM | 0.0015 µM | 0.0121 µM | IC50 at 6 days [6]: 21.5 µM
COc1cc2c(cc1OCC1COc3c(F)cccc3O1)CC(C(C)C)n1cc(C(=O)O)c(=O)cc1-2 (stereo not drawn) | – | – | – | 16.7 µM | 0.0206 µM | 0.0015 µM | 0.029 µM | –
COc1cc2c(cc1OC[C@H]1CCCO1)C[C@H](C(C)C)n1cc(C(=O)O)c(=O)cc1-2 | 3.39 µM | 0.0035 µM | 0.0375 µM | – | – | – | – | –
COc1cc2c(cc1OCC1COc3ccc([N+](=O)[O-])cc3O1)CC(C(C)C)n1cc(C(=O)O)c(=O)cc1-2 (stereo not drawn) | – | – | – | 50 µM | 0.0182 µM | 0.0046 µM | 0.0165 µM | –
COc1cc2c(cc1OCC1CCOC1)CC(C(C)C)n1cc(C(=O)O)c(=O)cc1-2 (stereo not drawn) | – | – | – | > 50 µM | 0.0562 µM | 0.0011 µM | 0.0006 µM | –
COc1cc2c(cc1OC[C@H]1COc3cccnc3O1)C[C@H](C(C)C)n1cc(C(=O)O)c(=O)cc1-2 | 12.8 µM | 3.08 µM | 3.08 µM | – | – | – | – | –
COc1cc2c(cc1OCC1COc3cc(F)ccc3O1)CC(C(C)C)n1cc(C(=O)O)c(=O)cc1-2 (stereo not drawn) | – | – | – | 11.6 µM | 0.0227 µM | 0.0184 µM | 0.0155 µM | –
COc1cc2c(cc1OCC1COc3ccc(Br)cc3O1)CC(C(C)C)n1cc(C(=O)O)c(=O)cc1-2 (stereo not drawn) | – | – | – | 11.6 µM | 0.127 µM | 0.0245 µM | 0.0134 µM | –
COc1cc2c(cc1OCc1ccc3c(c1)OCCO3)CC(C(C)C)n1cc(C(=O)O)c(=O)cc1-2 (stereo not drawn) | – | – | – | 34.7 µM | 0.0102 µM | 0.0002 µM | 0.0134 µM | –
COc1cc2c(cc1OCc1ccc3c(c1)OCO3)CC(C(C)C)n1cc(C(=O)O)c(=O)cc1-2 (stereo not drawn) | – | – | – | > 50 µM | 0.0667 µM | 0.0016 µM | 0.005 µM | Cmax [8]: 2.18 µM; MRT last at 24 h [9]: 101 min; AUC(0-t) at 24 h [10]: 4.46 µM·h; Tmax [11]: 49.8 min; half-life [12]: 82.2 min
COc1ccc2c(c1)OCC(COc1cc3c(cc1OC)-c1cc(=O)c(C(=O)O)cn1C(C(C)C)C3)O2 (stereo not drawn) | – | – | – | > 50 µM | > 1 µM | 0.403 µM | 0.052 µM | –
COCCCOc1cc2c(cc1OC)-c1cc(=O)c(C(=O)O)cn1C(C(C)C)C2 (racemic) | 0.0182 µM | 0.001 µM | 0.001 µM | > 50 µM | 0.0912 µM | 0.0051 µM | 0.0863 µM | Cmax [8]: 11.6 µM; MRT last at 24 h [9]: 67.8 min; Activity [4]: Toxic; AUC(0-t) at 24 h [10]: 17.2 µM·h; Activity [5]: Toxic; Tmax [11]: 11.4 min; half-life [12]: 51 min
